The values that follow come from PubChem BioAssay (NCI).

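Five compound concentrations were applied to cells in 96-well plates for 48 hours; endpoints were derived by simple linear interpolation of the resulting dose-response curve. GI50 marks 50% less growth. TGI marks complete inhibition of growth.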 Some results are limits rather than exact numbers.

Test systems include EKVX NSCLC; HCC-2998 colon; HOP-92 NSCLC; HS 578T breast; KM12 colon; LOX IMVI melanoma; MDA-MB-435; RPMI-8226 leukemia; T-47D breast; UACC-257 melanoma.
Assay in all cases: inhibition of tumour cell growth, NCI panel, 48 h

Take `CCN(CCO)CCNc1ccc(C)c2sc3cc(Cl)ccc3c(=O)c12`: the GI50 was 1.62 µM in the assay on EKVX NSCLC; 1.51 µM in the assay on HCC-2998 colon; 1.56 µM in the assay on HOP-92 NSCLC; 1.76 µM with HS 578T breast; 1.67 µM in the assay with KM12 colon; 1.59 µM in the assay with LOX IMVI melanoma. Moreover, the GI50 in the assay on MDA-MB-435 is 0.891 µM; with RPMI-8226 leukemia, 1.86 µM; in the assay with T-47D breast, 1.91 µM; with UACC-257 melanoma it was 1.97 µM. Moreover, the TGI in the assay with EKVX NSCLC was found to be 3.18 µM; in the assay with HCC-2998 colon, 3.14 µM; with HOP-92 NSCLC it was 8.94 µM; in the assay with HS 578T breast it was 4.46 µM; in the assay on KM12 colon, 3.36 µM; in the assay on LOX IMVI melanoma, 3.06 µM. The TGI in the assay with MDA-MB-435 came to 2.26 µM; with RPMI-8226 leukemia, 4.6 µM; with T-47D breast, 3.96 µM; in the assay with UACC-257 melanoma, 3.55 µM.
Regarding `CCCCCC(=O)Oc1ccc(/C(=C(\C)c2ccc(OC)cc2)c2ccc(OCCN3CCCCC3)cc2)cc1`, the GI50 in the assay on EKVX NSCLC was 9.92 µM; in the assay with HCC-2998 colon, 12.5 µM; with HOP-92 NSCLC, 3.83 µM; in the assay on HS 578T breast, 4.76 µM; in the assay on KM12 colon, 8.83 µM; in the assay with LOX IMVI melanoma, 2.19 µM. Moreover, the GI50 is 7.93 µM in the assay with MDA-MB-435, 3.24 µM in the assay with RPMI-8226 leukemia, 2 µM in the assay on T-47D breast and 2.31 µM with UACC-257 melanoma. Besides, the TGI in the assay with EKVX NSCLC amounted to 22.7 µM; with HCC-2998 colon, 25.5 µM; with HOP-92 NSCLC, 17 µM; in the assay on HS 578T breast, 25.1 µM; with KM12 colon it was 27 µM; in the assay on LOX IMVI melanoma, 5.22 µM. The TGI worked out at 20.7 µM with MDA-MB-435, 16.5 µM in the assay on T-47D breast and 5.83 µM with UACC-257 melanoma.
Regarding `Cc1c(-c2nc(N)nc(C3CC3)c2C)nc(N)nc1C1CC1`, the TGI in the assay with EKVX NSCLC, in the assay with HCC-2998 colon, in the assay on HOP-92 NSCLC, with HS 578T breast, in the assay with KM12 colon and in the assay with LOX IMVI melanoma was greater than 100 µM in each case. Also, the TGI with MDA-MB-435, with RPMI-8226 leukemia, in the assay with T-47D breast and with UACC-257 melanoma was greater than 100 µM each time.
With `C=CCOc1c(Br)cc(Br)cc1Br`, the GI50 is 10.3 µM in the assay with EKVX NSCLC; 46.4 µM with HCC-2998 colon; 35.6 µM in the assay on HOP-92 NSCLC; 17.8 µM in the assay with HS 578T breast; 14.1 µM in the assay on KM12 colon; 15.9 µM with LOX IMVI melanoma. For the same compound, the GI50 in the assay on MDA-MB-435 is 3.46 µM; in the assay with RPMI-8226 leukemia, 16.2 µM; with T-47D breast, 31.4 µM; with UACC-257 melanoma it was 57.6 µM. Besides, the TGI in the assay with EKVX NSCLC was greater than 100 µM; in the assay on HCC-2998 colon, greater than 100 µM; in the assay on HOP-92 NSCLC, greater than 100 µM; with HS 578T breast, greater than 100 µM; in the assay with KM12 colon, 45.7 µM; in the assay on LOX IMVI melanoma, greater than 100 µM. Further, the TGI was 66.1 µM with MDA-MB-435, greater than 100 µM in the assay on RPMI-8226 leukemia, greater than 100 µM with T-47D breast and greater than 100 µM with UACC-257 melanoma.
As to `COC(=O)c1c(O)ccc2[nH]c(C)c(C#N)c12`, the GI50 in the assay with EKVX NSCLC was 96.2 µM; in the assay on HCC-2998 colon, 95.1 µM; in the assay with HOP-92 NSCLC it was 30.3 µM; with HS 578T breast it was 31 µM; in the assay with KM12 colon, 39.5 µM; in the assay with LOX IMVI melanoma, 30.9 µM. Further, the GI50 in the assay with MDA-MB-435 is 32.9 µM; in the assay on RPMI-8226 leukemia it was 27.3 µM; in the assay with T-47D breast, 44.4 µM; in the assay with UACC-257 melanoma it was greater than 100 µM. Further, the TGI was greater than 100 µM with EKVX NSCLC; greater than 100 µM in the assay with HCC-2998 colon; 91.9 µM with HOP-92 NSCLC; 92.2 µM in the assay on HS 578T breast; greater than 100 µM in the assay on KM12 colon; greater than 100 µM in the assay on LOX IMVI melanoma. Further, the TGI in the assay with MDA-MB-435, in the assay with RPMI-8226 leukemia, in the assay with T-47D breast and in the assay on UACC-257 melanoma was greater than 100 µM in each case.
